{"source": "PubChem BioAssay AID2060602", "about": "(Molecular Pharmacology Branch, DTP, NCI, 2025)", "system": "648629-189-R-J1-PDC complex spheroids viability", "experiment": "Anticancer human tumor 648629-189-R-J1-PDC patient-derived bladder carcinoma cell line growth inhibition [CLK]", "details": "for viability, T/C: stronger effect = lower value", "how_it_was_run": "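Multi-cell-type spheroids combined patient-derived tumor cells with HUVEC endothelial cells and human mesenchymal stem cells. Paired agents were dosed in half-log steps down from about clinical Cmax, or from 10 microM where Cmax was unknown.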", "key": {"[1]": {"details": "curve of first compound, second compound 0.0316 µM"}, "[2]": {"details": "curve of first compound, second compound 0.1 µM"}, "[3]": {"details": "curve of first compound, second compound 0.316 µM"}, "[4]": {"details": "curve of first compound, second compound 1 µM"}, "[5]": {"details": "curve of first compound, second compound 3.16 µM"}, "[6]": {"details": "curve of first compound, second compound 10 µM"}}, "note": "Several values for one entry are separate records, joined by “and”; a condition that tells them apart may be missing. Equal entries are not always repeated.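 Throughout, for viability, T/C: drug exposure lasted seven days before viability readout; 100% = DMSO vehicle control wells.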", "data": [{"smiles": "C=CC(=O)Nc1cc(Nc2nccc(-c3cn(C)c4ccccc34)n2)c(OC)cc1N(C)CCN(C)C", "note": "+ CN1CCN(c2cc(C(=O)Nc3cc4cc(-c5cnn(C)c5)ccc4cn3)ccn2)CC1", "values": [{"measurement": "IC50", "setting": "[1]", "result": "> 0.3", "unit": "µM"}, {"measurement": "IC50", "setting": "[2]", "result": "> 0.3", "unit": "µM"}, {"measurement": "IC50", "setting": "[3]", "result": "< 0.000949", "unit": "µM"}, {"measurement": "IC50", "setting": "[4]", "result": "< 0.000949", "unit": "µM"}, {"measurement": "IC50", "setting": "[5]", "result": "< 0.000949", "unit": "µM"}, {"measurement": "IC50", "setting": "[6]", "result": "< 0.000949", "unit": "µM"}, {"measurement": "viability, T/C", "setting": "second compound 0.0316 µM, first compound 0.000949 µM", "result": 104, "unit": "%"}, {"measurement": "viability, T/C", "setting": "second compound 0.0316 µM, first compound 0.003 µM", "result": 109, "unit": "%"}, {"measurement": "viability, T/C", "setting": "second compound 0.0316 µM, first compound 0.00949 µM", "result": 112, "unit": "%"}, {"measurement": "viability, T/C", "setting": "second compound 0.0316 µM, first compound 0.03 µM", "result": 115, "unit": "%"}, {"measurement": "viability, T/C", "setting": "second compound 0.0316 µM, first compound 0.0949 µM", "result": 110, "unit": "%"}, {"measurement": "viability, T/C", "setting": "second compound 0.0316 µM, first compound 0.3 µM", "result": 91.6, "unit": "%"}, {"measurement": "viability, T/C", "setting": "second compound 0.1 µM, first compound 0.000949 µM", "result": 104, "unit": "%"}, {"measurement": "viability, T/C", "setting": "second compound 0.1 µM, first compound 0.003 µM", "result": 117, "unit": "%"}, {"measurement": "viability, T/C", "setting": "second compound 0.1 µM, first compound 0.00949 µM", "result": 103, "unit": "%"}, {"measurement": "viability, T/C", "setting": "second compound 0.1 µM, first compound 0.03 µM", "result": 103, "unit": "%"}, {"measurement": "viability, T/C", "setting": "second compound 0.1 µM, first compound 0.0949 µM", "result": 99.1, "unit": "%"}, {"measurement": "viability, T/C", "setting": "second compound 0.1 µM, first compound 0.3 µM", "result": 93, "unit": "%"}, {"measurement": "viability, T/C", "setting": "second compound 0.316 µM, first compound 0.000949 µM", "result": 31.4, "unit": "%"}, {"measurement": "viability, T/C", "setting": "second compound 0.316 µM, first compound 0.003 µM", "result": 42.5, "unit": "%"}, {"measurement": "viability, T/C", "setting": "second compound 0.316 µM, first compound 0.00949 µM", "result": 40.7, "unit": "%"}, {"measurement": "viability, T/C", "setting": "second compound 0.316 µM, first compound 0.03 µM", "result": 35.6, "unit": "%"}, {"measurement": "viability, T/C", "setting": "second compound 0.316 µM, first compound 0.0949 µM", "result": 33.8, "unit": "%"}, {"measurement": "viability, T/C", "setting": "second compound 0.316 µM, first compound 0.3 µM", "result": 23.6, "unit": "%"}, {"measurement": "viability, T/C", "setting": "second compound 1 µM, first compound 0.000949 µM", "result": 0.28, "unit": "%"}, {"measurement": "viability, T/C", "setting": "second compound 1 µM, first compound 0.003 µM", "result": 0.35, "unit": "%"}, {"measurement": "viability, T/C", "setting": "second compound 1 µM, first compound 0.00949 µM", "result": 1.06, "unit": "%"}, {"measurement": "viability, T/C", "setting": "second compound 1 µM, first compound 0.03 µM", "result": 0.49, "unit": "%"}, {"measurement": "viability, T/C", "setting": "second compound 1 µM, first compound 0.0949 µM", "result": 0.24, "unit": "%"}, {"measurement": "viability, T/C", "setting": "second compound 1 µM, first compound 0.3 µM", "result": 0.19, "unit": "%"}, {"measurement": "viability, T/C", "setting": "second compound 3.16 µM, first compound 0.000949 µM", "result": 0.13, "unit": "%"}, {"measurement": "viability, T/C", "setting": "second compound 3.16 µM, first compound 0.003 µM", "result": 0.19, "unit": "%"}, {"measurement": "viability, T/C", "setting": "second compound 3.16 µM, first compound 0.00949 µM", "result": 0.15, "unit": "%"}, {"measurement": "viability, T/C", "setting": "second compound 3.16 µM, first compound 0.03 µM", "result": 0.14, "unit": "%"}, {"measurement": "viability, T/C", "setting": "second compound 3.16 µM, first compound 0.0949 µM", "result": 0.82, "unit": "%"}, {"measurement": "viability, T/C", "setting": "second compound 3.16 µM, first compound 0.3 µM", "result": 0.77, "unit": "%"}, {"measurement": "viability, T/C", "setting": "second compound 10 µM, first compound 0.000949 µM", "result": 0.24, "unit": "%"}, {"measurement": "viability, T/C", "setting": "second compound 10 µM, first compound 0.003 µM", "result": 2.1, "unit": "%"}, {"measurement": "viability, T/C", "setting": "second compound 10 µM, first compound 0.00949 µM", "result": 0.19, "unit": "%"}, {"measurement": "viability, T/C", "setting": "second compound 10 µM, first compound 0.03 µM", "result": 0.23, "unit": "%"}, {"measurement": "viability, T/C", "setting": "second compound 10 µM, first compound 0.0949 µM", "result": 0.24, "unit": "%"}, {"measurement": "viability, T/C", "setting": "second compound 10 µM, first compound 0.3 µM", "result": 0.21, "unit": "%"}]}, {"smiles": "Nc1ccccc1NC(=O)c1ccc(CNC(=O)OCc2cccnc2)cc1", "note": "+ CN1CCN(c2cc(C(=O)Nc3cc4cc(-c5cnn(C)c5)ccc4cn3)ccn2)CC1", "values": [{"measurement": "IC50", "setting": "[1]", "result": 1.87, "unit": "µM"}, {"measurement": "IC50", "setting": "[2]", "result": 1.84, "unit": "µM"}, {"measurement": "IC50", "setting": "[3]", "result": "< 0.0316", "unit": "µM"}, {"measurement": "IC50", "setting": "[4]", "result": "< 0.0316", "unit": "µM"}, {"measurement": "IC50", "setting": "[5]", "result": "< 0.0316", "unit": "µM"}, {"measurement": "IC50", "setting": "[6]", "result": "< 0.0316", "unit": "µM"}, {"measurement": "viability, T/C", "setting": "second compound 0.0316 µM, first compound 0.0316 µM", "result": 124, "unit": "%"}, {"measurement": "viability, T/C", "setting": "second compound 0.0316 µM, first compound 0.1 µM", "result": 125, "unit": "%"}, {"measurement": "viability, T/C", "setting": "second compound 0.0316 µM, first compound 0.316 µM", "result": 96.9, "unit": "%"}, {"measurement": "viability, T/C", "setting": "second compound 0.0316 µM, first compound 1 µM", "result": 72.2, "unit": "%"}, {"measurement": "viability, T/C", "setting": "second compound 0.0316 µM, first compound 3.16 µM", "result": 32.5, "unit": "%"}, {"measurement": "viability, T/C", "setting": "second compound 0.0316 µM, first compound 10 µM", "result": 1.56, "unit": "%"}, {"measurement": "viability, T/C", "setting": "second compound 0.1 µM, first compound 0.0316 µM", "result": 107, "unit": "%"}, {"measurement": "viability, T/C", "setting": "second compound 0.1 µM, first compound 0.1 µM", "result": 109, "unit": "%"}, {"measurement": "viability, T/C", "setting": "second compound 0.1 µM, first compound 0.316 µM", "result": 96.9, "unit": "%"}, {"measurement": "viability, T/C", "setting": "second compound 0.1 µM, first compound 1 µM", "result": 71.7, "unit": "%"}, {"measurement": "viability, T/C", "setting": "second compound 0.1 µM, first compound 3.16 µM", "result": 31, "unit": "%"}, {"measurement": "viability, T/C", "setting": "second compound 0.1 µM, first compound 10 µM", "result": 1.87, "unit": "%"}, {"measurement": "viability, T/C", "setting": "second compound 0.316 µM, first compound 0.0316 µM", "result": 37.4, "unit": "%"}, {"measurement": "viability, T/C", "setting": "second compound 0.316 µM, first compound 0.1 µM", "result": 46.7, "unit": "%"}, {"measurement": "viability, T/C", "setting": "second compound 0.316 µM, first compound 0.316 µM", "result": 39.1, "unit": "%"}, {"measurement": "viability, T/C", "setting": "second compound 0.316 µM, first compound 1 µM", "result": 33.8, "unit": "%"}, {"measurement": "viability, T/C", "setting": "second compound 0.316 µM, first compound 3.16 µM", "result": 7.95, "unit": "%"}, {"measurement": "viability, T/C", "setting": "second compound 0.316 µM, first compound 10 µM", "result": 0.08, "unit": "%"}, {"measurement": "viability, T/C", "setting": "second compound 1 µM, first compound 0.0316 µM", "result": 0.41, "unit": "%"}, {"measurement": "viability, T/C", "setting": "second compound 1 µM, first compound 0.1 µM", "result": 0.4, "unit": "%"}, {"measurement": "viability, T/C", "setting": "second compound 1 µM, first compound 0.316 µM", "result": 0.31, "unit": "%"}, {"measurement": "viability, T/C", "setting": "second compound 1 µM, first compound 1 µM", "result": 0.07, "unit": "%"}, {"measurement": "viability, T/C", "setting": "second compound 1 µM, first compound 3.16 µM", "result": 0.1, "unit": "%"}, {"measurement": "viability, T/C", "setting": "second compound 1 µM, first compound 10 µM", "result": 0.53, "unit": "%"}, {"measurement": "viability, T/C", "setting": "second compound 3.16 µM, first compound 0.0316 µM", "result": 0.08, "unit": "%"}, {"measurement": "viability, T/C", "setting": "second compound 3.16 µM, first compound 0.1 µM", "result": 1.97, "unit": "%"}, {"measurement": "viability, T/C", "setting": "second compound 3.16 µM, first compound 0.316 µM", "result": 0.1, "unit": "%"}, {"measurement": "viability, T/C", "setting": "second compound 3.16 µM, first compound 1 µM", "result": 0.07, "unit": "%"}, {"measurement": "viability, T/C", "setting": "second compound 3.16 µM, first compound 3.16 µM", "result": 0.07, "unit": "%"}, {"measurement": "viability, T/C", "setting": "second compound 3.16 µM, first compound 10 µM", "result": 2.02, "unit": "%"}, {"measurement": "viability, T/C", "setting": "second compound 10 µM, first compound 0.0316 µM", "result": 0.04, "unit": "%"}, {"measurement": "viability, T/C", "setting": "second compound 10 µM, first compound 0.1 µM", "result": 0.11, "unit": "%"}, {"measurement": "viability, T/C", "setting": "second compound 10 µM, first compound 0.316 µM", "result": 0.12, "unit": "%"}, {"measurement": "viability, T/C", "setting": "second compound 10 µM, first compound 1 µM", "result": 0.14, "unit": "%"}, {"measurement": "viability, T/C", "setting": "second compound 10 µM, first compound 3.16 µM", "result": 2.26, "unit": "%"}, {"measurement": "viability, T/C", "setting": "second compound 10 µM, first compound 10 µM", "result": 0.17, "unit": "%"}]}, {"smiles": "CC1COCCN1c1cc(C2(S(C)(=N)=O)CC2)nc(-c2ccnc3[nH]ccc23)n1", "note": "(stereo unspecified)", "values": [{"measurement": "viability, T/C", "setting": "compound 0.0316 µM", "result": "103% and 105%"}, {"measurement": "viability, T/C", "setting": "compound 0.1 µM", "result": "96.5% and 93.5%"}, {"measurement": "viability, T/C", "setting": "compound 0.316 µM", "result": "108% and 97%"}, {"measurement": "viability, T/C", "setting": "compound 1 µM", "result": "87.4% and 95%"}, {"measurement": "viability, T/C", "setting": "compound 3.16 µM", "result": "47.8% and 45.4%"}, {"measurement": "viability, T/C", "setting": "compound 10 µM", "result": "23.8% and 18.8%"}, {"measurement": "IC50", "setting": "curve of compound", "result": "2.93 µM and 2.84 µM"}]}]}
